Experimental data published in patent US12496304B2, “Selective glucocorticoid receptor modifiers for treating impaired skin wound healing” (AKRIBES BIOMEDICAL GMBH, priority 2019, dated 2025).

How the values were obtained:
IL-1β = IL-1β secretion into the supernatant in the fibroblast proliferation assay (ELISA); assay type: cell-based, human; conditions: WE-1 (FIG. 2B, 9B), graded concentrations
Protocol: Primary human dermal fibroblasts (HDF) were purchased from CELLnTEC, Bern. They were routinely grown in Dulbecco's modified Eagle's medium (DMEM) containing 10% FCS, 2 mM glutamine, and 100 U/ml penicillin/100 μg/ml streptomycin. Media, antibiotics, and glutamine were bought from Lonza. The cells were used at passage 5-15. Cells were trypsinized and seeded at 2500 cells/well in 30 μl into the inner wells of 384-well plates in the absence or presence of graded compound concentrations with or without different dilutions of sterile-filtered WE in medium. For control samples, 30 μl medium was added instead of specific stimuli. The outer wells were loaded with sterile water. The cells were incubated for 72 hours at 37° C.
At the end of the incubation period, supernatants were removed for the determination of IL-1β, and the cells were fixed with 4% paraformaldehyde (Morphisto) for 15 minutes at room temperature and washed 3 times with PBS. A control plate was fixed after the overnight adherence of the cells (day 1) to determine the starting cell number.
IL-1β levels were determined with a commercial ELISA kit. The amount of IL-1β contained in the wound exudate added to the cells was subtracted from the total IL-B in the supernatants in order to determine the cytokine secreted by the cells.

IL-8 [1] = test: U937 cell stimulation assay (LPS-induced IL-8); assay type: cell-based, human; conditions: LPS 100 ng/ml, 16 hours (FIG. 16A)
Protocol: The human monocytic cell line U937 (ATCC CRL 1593) was routinely grown in RPMI_1640 supplemented by 10% FCS and 2 mM glutamine, and 100 U/ml penicillin/100 μg/ml streptomycin. Cells were seeded at 4×10^5/ml in 50 μl/well of a 384-well plate and combined cells with graded concentrations of test compounds and LPS at 100 ng/ml. After 16 hours, the supernatants were transferred to fresh plates and frozen at −20° C. for IL-8 analysis, using a commercial ELISA kit.

Collagen 1a = test: mRNA expression in fibroblast cultures (qRT-PCR): collagen 1; assay type: cell-based, human
Protocol: (§1) Cells were seeded into 24-well plates and incubated with compounds in the presence or absence of wound exudates for 72 hours. Total RNA was isolated using the RNeasy Mini Kit (QIAGEN #74106) according to the manufacturer's protocol. RNA integrity and concentration for each sample was confirmed and measured with the Qubit fluorometer. Each RNA sample was then diluted to 2 ng/μl in nuclease-free doubly distilled water.
(§2) 20 ng of total RNA were reverse-transcribed into cDNA and immediately subjected to PCR amplification using the SuperScript Ill Platinum One-Step Quantitative RT-PCR System with ROX (Invitrogen #11745). qRT-PCR amplifications were performed in 20 μl reactions containing 9 μl 2× Reaction Mix with ROX, 0.4 μl SuperScript III RT/Platinum Taq Mix and 1 μl primer (final: 900 nM, Taqman Gene Expression Assay, Applied Biosystems)
(§3) The program included 30 minutes of reverse transcription at 48° C., an initial denaturation for 5 minutes at 95° C. followed by 40 cycles of denaturation at 95° C. for 15 seconds and annealing at 60° C. for 60 seconds. Reactions were set up in 96-well format PCR plates (Peqlab #732-2879) and carried out in a Mx3005P Real-Time PCR Detection System (Stratagene).
(§4) TaqMan Gene Expression Assays (Applied Biosystems) were used, which include preoptimized probe and primer sets specific for the genes being validated. The sequences and ID numbers are listed below:
(§5) The house keeping gene elongation factor 1a (EF1a) was used as a reference gene. Normalized expression was calculated using the comparative Ct (or ΔCt) method, and fold changes were derived from the 2-ΔΔCt values for each gene. Graphs were prepared using relative Ct values that were calculated by subtracting the EF1a Ct values from the corresponding Ct values for the gene being measured.

IL-8 [2] = test: Primary human monocyte cytokine secretion assay (spontaneous IL-8); assay type: cell-based; conditions: 16 hours (FIG. 16B)
Protocol: Primary human monocytes were prepared from peripheral blood mononuclear cells (PBMC). PBMC were isolated from buffy coats obtained from the Red Cross, Vienna, using LymphoPrep (Technoclone). 30 ml of buffy concentrate was diluted 1:2 with PBS, gently underlayered with 15 ml Lymphoprep in a 50 ml Falcon tube and centrifuged for 25 minutes at 1800 rpm at 21° C. The interphase was carefully transferred to a new Falcon tube and filled up to 50 ml with ice cold PBS. After another centrifugation step (10 minutes, 1200 rpm, 4° C.), the cell pellet was washed 3 times with PBS, resuspended in RPMI medium containing 20% FCS and 10% DMSO and frozen in liquid nitrogen. Monocytes were generated from frozen aliquots using positive selection with the CD14 Beads-Kit (Miltenyi) on an autoMACS-Sorter (Miltenyi) according to the manufacturer's instructions.
Cells were seeded at 8×10^5/ml in 50 μl/well of a 384-well plate and combined cells with graded concentrations of test compounds. After 16 hours, the supernatants were transferred to fresh plates and frozen at −20° C. for IL-8 analysis, using a commercial ELISA kit.

Collagen 3a = test: mRNA expression in fibroblast cultures (qRT-PCR): collagen 3; assay type: cell-based, human
Protocol: as §1, §2, §3, §4, §5

[3] = tested on: human dermal fibroblast (HDF) cells; test: Fibroblast-derived matrix formation (FDM) assay, 3D fibroblast culture; assay type: cell-based
Protocol: Human dermal fibroblast (HDF) cells were seeded at 1250 cells/well on day −3 into 384-well tissue culture plates, which had been pre-coated for 1 hour at 37° C. with 0.2% gelatin solution (Sigma). When the cells reached confluence (=day 0), a matrix promoting supplement (vitamin C: 2-phospho-L-ascorbic acid trisodium salt, 100 μg/ml; Sigma) was added together with test samples containing TGF-β1 or graded concentrations of compounds −/+WE as described for the HDF proliferation assay. After 4 days, medium was replaced by fresh vitamin C—and stimulus—as well as compound-containing medium, maintaining the conditions initiated on day 0. TGF-β1 was included as a positive control to promote FDM formation. After a total incubation time of 7 to 8 days, FDM production was measured in fixed cultures via SRB staining and evaluated as described above. In some cases, the experiment was stopped and evaluated already on day 4.

[4] = medium in the absence of WE, 72-hour incubation

Which results are given for `CCS(=O)(=O)c1cc2cc(C[C@@](O)(CC(C)(C)c3ccc(F)cc3C(N)=O)C(F)(F)F)[nH]c2cn1` [BI-3047]?
IL-1β secretion into the supernatant (IL-1β): much less effect on IL-1β secretion; LPS-induced IL-8 secretion in U937 cells (IL-8 [1]): even induced IL-8 secretion at the highest concentrations; collagen 1 mRNA expression (Collagen 1a; [4]): no significant effect on collagen 1 mRNA in the presence of medium; spontaneous IL-8 secretion in human monocytes (IL-8 [2]): even induced IL-8 secretion at the highest concentrations; collagen 3 mRNA expression (Collagen 3a; [4]): reduction of collagen 3 mRNA with medium; formation of fibroblast-derived matrix (3D) ([3]; WE from patient #92 (FIG. 12)): did not induce matrix formation

For `CCS(=O)(=O)c1cc2cc(C[C@](O)(CC(C)(C)c3ccc(F)cc3C(N)=O)C(F)(F)F)[nH]c2cn1` [BI-653048, (R)-2-(4-((5-(Ethylsulfonyl)-1H-pyrrolo[2,3-c]pyridin-2-yl)methyl)-5,5,5-trifluoro-4-hydroxy-2-methylpentan-2-yl)-5-fluorobenzamide], which “IL-1β secretion into the supernatant” value (IL-1β) is on record?
The value was “inhibited IL-1β secretion at the same concentrations”.

And the “LPS-induced IL-8 secretion in U937 cells” value (IL-8 [1])?
The value was “inhibited both LPS-induced and spontaneous IL-8 secretion”.

What about the “collagen 1 mRNA expression” value (Collagen 1a; WE-2, 1 μM, 72-hour incubation (FIG. 3A)) of the same compound?
The value was “induced mRNA expression of both collagens 1 and 3 in the presence of wound exudate”.

What about the “collagen 1 mRNA expression” value (Collagen 1a; [4]) of the same compound?
Its value is “no significant effect on collagen 1 mRNA in the presence of medium”.

What about the “spontaneous IL-8 secretion in human monocytes” value (IL-8 [2]) of the same compound?
The value was “inhibited both LPS-induced and spontaneous IL-8 secretion”.

What about the “collagen 3 mRNA expression” value (Collagen 3a; WE-2, 1 μM, 72-hour incubation (FIG. 3B)) of the same compound?
Its value is “induced mRNA expression of both collagens 1 and 3 in the presence of wound exudate”.

And the “collagen 3 mRNA expression” value (Collagen 3a; [4])?
Its value is “reduction of collagen 3 mRNA with medium”.

And the “formation of fibroblast-derived matrix (3D)” value ([3]; WE-1, graded concentrations (FIG. 4))?
Its value is “effective in inducing matrix formation in the presence of wound exudate”.
